Experimental findings from patent US6576620B2, “Method of identifying partial adenosine A1 receptor agonists” (CV Therapeutics, Inc., priority 1999, dated 2003) are described below.

In general, Hill slope refers to the slope factor of the fitted curve. In general, EC50 refers to the concentration giving half of the maximal effect. What is called IC50 is the concentration at which inhibition is half-maximal. A word on the Ki: it is the dissociation constant of the complex between target and ligand, obtained from inhibition or displacement.

The target in data set [1] is T1, A1-AdoR (Rattus norvegicus, UniProt P25099).
T1 sequence (P25099 1-326): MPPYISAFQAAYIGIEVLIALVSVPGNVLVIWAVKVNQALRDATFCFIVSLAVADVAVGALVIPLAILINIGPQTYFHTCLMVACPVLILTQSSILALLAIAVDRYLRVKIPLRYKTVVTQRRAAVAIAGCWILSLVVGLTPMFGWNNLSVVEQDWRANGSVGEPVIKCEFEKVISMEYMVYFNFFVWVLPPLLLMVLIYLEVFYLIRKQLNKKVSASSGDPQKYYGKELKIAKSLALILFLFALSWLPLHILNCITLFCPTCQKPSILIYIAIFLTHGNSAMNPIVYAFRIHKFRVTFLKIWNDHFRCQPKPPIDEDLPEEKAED
The experiment in a line: 3H-CPX binding to rat adipocyte membranes. The settings on record: for IC50: IC50 to reduce the binding of 3H-CPX; for Ki: Ki for reduction of 3H-CPX binding. On the procedure:
(§1) Membranes containing A1-AdoRs for use in radioligand binding assays were prepared from guinea pig cerebral cortex or from rat isolated epididymal adipocytes. Freshly-isolated guinea pig brain cortical tissue was homogenized in ice-cold 50 mM Tris-HCl buffer (pH 7.4) using six up and down strokes of an ice-chilled Potter-Elvejhem tissue grinder and a motor-driven teflon™ pestle. A crude membrane preparation was isolated by centrifugation of the homogenate at 15,000×g for 20 min at 4° C. The membrane pellet was resuspended in fresh Tris buffer and pelleted again by centrifugation. The final membrane pellet was suspended in Tris buffer to achieve a protein content of 1.1-1.4 mg/ml and divided into aliquots for storage at −80° C. until needed for assays. Adipocytes were isolated from 10 epididymal fat pads and suspended in a homogenization buffer (pH 7.3) containing 250 mM sucrose, 20 mM HEPES, 1 mM EDTA, 10 μg/ml leupeptin, and 5 μg/ml pepstatin. Cells were homogenized using an ice-chilled Potter-Elvehjem tissue grinder and a motor-driven teflon™ pestle. Cell membranes were separated from fat by centrifugation of the homogenate for 5 min at 1000×g at 4° C. The infranate below the fat cake was removed and placed in a centrifuge tube. Membranes were collected by centrifugation of the infranate for 30 min at 20,000×g at 4° C. Membranes were resuspended in buffer (pH 7.1 at room temperature) containing 154 mM NaCl, 10 mM MgCl2, 50 mM HEPES, 1 mM EDTA, 5 μg/ml leupeptin, 5 μg/ml pepstatin, and 5 U/ml adenosine deaminase, and stored as aliquots in liquid nitrogen until needed for assays.
(§2) The binding affinity of experimental agonists high and low affinity states of the A1-ADOR was determined. […] The presence of GTP reduces the availability of high affinity binding sites on the GPCR. Thus, the method allows for a discrimination between high and low binding affinities.
(§3) After a 3 hour incubation at room temperature. the reaction was terminated by diluting the samples with ice-cold Tris buffer and immediate collection of membranes onto glass-fiber filters (Schleicher and Schuell, Keene, N.H.) by vacuum filtration using a cell harvester (Brandel, Gaithersburg, Md.). Filters were washed quickly three times with ice-cold buffer to remove unbound radioligand. Filter discs containing trapped membranes and bound radioligand were placed in 4 ml of scintillation cocktail and radioactivity of samples was quantified using a liquid scintillation counter. […] Results of radioligand binding assays were analyzed using the Prism program from GraphPad (San Diego, Calif.).

The subject of data set [2] is guinea pig isolated heart. The experiment in a line: Spontaneous atrial rate, isolated heart. The settings on record: for atrial rate: maximal effect, controls 195±6 (Compound 6) and 198±15 (CPA). The source says:
Guinea pigs (Hartley) of either sex weighing 300-350 g were anaesthetized with methoxyflurane and killed by decapitation. The chest was cut open and the heart was removed quickly and rinsed in ice-cold modified Krebs-Henseleit (K-H) solution. The contents of the modified K-H solution were (in mM): NaCl 117.9, KCl 4.8, CaCl2 2.5, MgSO2 1.18, KH2PO4 1.2, Na2 EDTA 0.5, ascorbic acid 0.14, dextrose 5.5, pyruvic acid (sodium salt) 2.0, and NaHCO3 25. The K-H solution was continuously gassed with 95% oxygen and 5% CO2, and the pH was adjusted to a value of 7.4. To perfuse the heart by the Langendorff method, the transected aorta was slid onto a glass cannula and secured by a ligature. Retrograde perfusion of the aorta was initiated immediately at a constant flow of 10 ml min-′ with modified K-H solution warmed to 36.0±0.5° C. A side port in the cannula was used to connect the perfusion line to a Gould pressure transducer for measurement of coronary perfusion pressure. Coronary perfusion pressure was continuously recorded on a strip chart (Gould RS3400, Cleveland, Ohio) throughout each experiment. Coronary conductance (in ml min^−1 mmHg^−1) was calculated as the ratio of coronary flow (10 ml min^−1) to perfusion pressure (mm Hg). To facilitate the exit of fluid from the left ventricle, the leaflets of the mitral valve were trimmed with fine spring-handled scissors. When appropriate, hearts were paced at a constant rate using external electrodes. After completion of dissection and instrumentation (see below) for measurement of either atrial rate, stimulus-to-His bundle (S-H) interval, monophasic action potentials, or coronary perfusion pressure, each heart was allowed to equilibrate for 20-40 min before the administration of drug. Experimental interventions were always preceded and followed by control measurements. Criteria for exclusion of hearts from study were (1) a coronary perfusion pressure of less than 50 mm Hg, (2) absence of a stable coronary perfusion pressure during the equilibration period, and (3) inability to pace a heart at a constant rate throughout an experiment.
To measure spontaneous atrial rate in hearts that were not paced, a unipolar electrode was placed on the right atrium. A total of 10 atrial beats before, during, and after each intervention was recorded on chart paper moving at a rate of 50 mm per sec, and the average atrial rate at each time was determined from these records.

Data set [3] concerns the target T2, A1-AdoR (Cavia porcellus, UniProt P47745).
T2 sequence (P47745 1-326): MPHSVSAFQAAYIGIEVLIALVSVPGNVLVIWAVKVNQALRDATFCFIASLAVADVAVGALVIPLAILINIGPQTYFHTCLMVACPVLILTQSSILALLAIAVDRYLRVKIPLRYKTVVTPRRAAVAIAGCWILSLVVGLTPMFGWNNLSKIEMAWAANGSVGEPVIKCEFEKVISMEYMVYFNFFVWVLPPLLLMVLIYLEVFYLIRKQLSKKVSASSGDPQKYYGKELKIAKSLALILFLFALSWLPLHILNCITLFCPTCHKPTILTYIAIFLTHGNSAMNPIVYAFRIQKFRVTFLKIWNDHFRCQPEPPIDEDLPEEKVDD
In words: 3H-CPX binding to guinea pig forebrain membranes. The conditions noted are these: for IC50: IC50 to reduce the binding of 3H-CPX. As for the experimental part: as §1, §2, §3

[4] abbreviates: Ki for reduction of 3H-CPX binding, absence of GTP.

Like-named read-outs stand apart in the source and are kept apart here.

Regarding `OC[C@H]1O[C@@H](n2cnc3c(NC4CCCC4)ncnc32)[C@H](O)[C@@H]1O` [CPA, N^6-cyclopentyladenosine, reference compound], the Hill slope on A1-AdoR [1] (absence of GTP) was 0.88; at A1-AdoR [1] (presence of 1 mM GTP), 1.0; at A1-AdoR [3] (absence of GTP) it was 1.2; on A1-AdoR [3] (presence of 1 mM GTP), 0.53. At A1-AdoR [1] (adipocyte membranes), the “difference of IC50 in absence and presence of GTP” value was found to be 10 fold. Further, the EC50 in data set [2] (Cavia porcellus, read-out: EC50 to decrease atrial rate) amounted to 68 nM. The compound further registered an atrial rate in data set [2] of 1±1 beats per minute. In addition, the IC50 at A1-AdoR [3] (absence of GTP) was 2.5 nM; at A1-AdoR [3] (presence of 1 mM GTP), 28 nM. For the same compound, the Ki on A1-AdoR [3] (setting [4]) came out at 1.7 nM; at A1-AdoR [3] (Ki, high affinity sites, presence of 1 mM GTP, 2-site binding model), 10.4 nM; at A1-AdoR [3] (read-out: Ki, low affinity sites, presence of 1 mM GTP, 2-site binding model) it was 882 nM. On A1-AdoR [3] (forebrain membranes), the “difference of IC50 in absence and presence of 1 mM GTP” value came to 11 fold. The “sites having a high affinity” value at A1-AdoR [3] (presence of 1 mM GTP, 2-site binding model) amounted to 73%.

As to `CNC(=O)OC[C@H]1OC(n2cnc3c(N[C@@H]4CCOC4)ncnc32)[C@H](O)[C@@H]1O` (stereo partly drawn) [Compound 6 of Example 2, [(5-{6-[((3R)oxolan-3-yl)amino]purin-9-yl}(3 S,2R,4R)-3,4-dihydroxyoxolan-2-yl)methoxy]-N-methylcarboxamide], the IC50 was found to be 180 nM on A1-AdoR [1] (absence of GTP); 9500 nM at A1-AdoR [1] (presence of 1 mM GTP); 15000 nM on A1-AdoR [1] (presence of 1 mM GTP and 0.1 mM N-ethylmaleimide); 2900 nM on A1-AdoR [3] (presence of 1 mM GTP). Moreover, the Ki came out at 62 nM at A1-AdoR [1] (absence of GTP); 3300 nM at A1-AdoR [1] (presence of 1 mM GTP); 1800 nM on A1-AdoR [3] (setting [4]); 2100 nM at A1-AdoR [3] (Ki for reduction of 3H-CPX binding, presence of 1 mM GTP). Also, the Hill slope on A1-AdoR [1] (absence of GTP) is 0.87; on A1-AdoR [1] (presence of 1 mM GTP) it was 1.0; at A1-AdoR [3] (absence of GTP), 0.79; at A1-AdoR [3] (presence of 1 mM GTP) it was 0.99. Also, the “IC50 with GTP and N-ethylmaleimide relative to GTP alone” value at A1-AdoR [1] (adipocyte membranes) came to 1.6 fold. On A1-AdoR [1] (rat, adipocyte membranes), the “difference of IC50 in absence and presence of GTP” value is 53 fold. This compound also showed an atrial rate in data set [2] of 169±7 beats per minute. For the same compound, the “decrease of atrial rate” value in data set [2] (spontaneously-beating hearts) is listed as 13%.
